In one series the test system is HT-29 cells. Kind of series: Inhibition test for sphere formation assay of cancer cells. The format is cell-based. Conditions: for IC50: sphere culture (ultra-low attachment, serum-free), 4 days, CellTiter-Glo, read-out: Sphere IC50 value (concentration for 50% inhibition of cell proliferation); for activity for inhibiting cell proliferation in the sphere culture condition: summary in words. The protocol:
Reliable methods established for measuring the self-renewal ability of cells which is one of the CSC's properties include a method for measuring the sphere-forming ability of cancer cells in non-adherent condition in the absence of serum (Cancer Res 65, 5506-5511 (2005)). HT-29 cells were available from American Type Culture Collection (ATCC). HT-29 cells were cultured at 37° C. under 5% CO2 using the McCoy's 5a medium containing 10% fetal bovine serum (FBS) and 1% penicillin/streptomycin. HT-29 cells were seeded in a 384 Well Black Clear Bottom Ultra-Low Attachment Microplate (Corning Cat. No. 3827) in an amount of 350-800 cells/well using the DMEM/F12 medium containing 2% B27 supplement (GIBCO), 20 ng/mL epidermal growth factor (EGF) (peprotech), 10 ng/mL basic fibroblast growth factor (bFGF) (peprotech), 5 μg/mL insulin (Sigma), and 1% penicillin/streptomycin. Each test compound was added into each well to adjust the final concentration of DMSO to 0.1%, and the cells were cultured for 4 days. The number of viable cells in each well was then measured with CellTiter-Glo™ Luminescent Cell Viability Assay (Promega) to calculate the concentration of each test compound for 50% inhibition of cell proliferation (Sphere IC50 value; […])
The experiment of Test 1 was performed for each compound of each Example. The concentration of each test compound for 50% inhibition of cell proliferation (Sphere IC50 value; μmol/L) is shown in the following Table.
For orientation: Cellular ATP, detected with luciferase, serves as a proxy for viable cell number.

Series [1] addresses T1, hERG (Homo sapiens (Human), UniProt Q12809).
Method: (§1) To a cultured CHO cell strain which stably expresses hERG was added each test compound to adjust the final concentration of DMSO to 0.0135 to 0.5%. The hERG current was measured with QPatch HT (Sophion Inc.), and the concentration at which 50% of the hERG current was inhibited by each test compound (IC50 value; μM) was calculated.
(§2) The compounds of Examples were tested according to Test 2. And, the hERG/HT-29 was calculated by dividing the compound concentration obtained in Test 2 (50% of the hERG current is inhibited) by the compound concentration obtained in Test 1 (50% of the proliferation of HT-29 cells is inhibited).
Series [2] addresses T1, hERG. The experiment in a line: Test for evaluating hERG inhibition (QPatch HT, CHO cell strain stably expressing hERG). Conditions: for hERG/HT-29: hERG IC50 (Test 2) divided by HT-29 sphere IC50 (Test 1); for IC50: read-out: Binding inhibition (IC50, μM), concentration at which 50% of the hERG current was inhibited, CHO cells stably expressing hERG, QPatch HT; for deviation between the concentration of inhibiting 50% cell proliferation and the concentration of inhibiting 50% hERG current: summary in words of hERG/HT-29. On the technique in general: hERG is a cardiac potassium channel; its block is linked to QT prolongation.
Method: as §1, §2

Read-outs that look alike come from different tables or passages of the source.

The record followed here is patent US10807993B2, “Dihydrochromene derivatives” (Sumitomo Dainippon Pharma Co., Ltd., priority 2018, dated 2020).

T1 sequence (Q12809 whole entry): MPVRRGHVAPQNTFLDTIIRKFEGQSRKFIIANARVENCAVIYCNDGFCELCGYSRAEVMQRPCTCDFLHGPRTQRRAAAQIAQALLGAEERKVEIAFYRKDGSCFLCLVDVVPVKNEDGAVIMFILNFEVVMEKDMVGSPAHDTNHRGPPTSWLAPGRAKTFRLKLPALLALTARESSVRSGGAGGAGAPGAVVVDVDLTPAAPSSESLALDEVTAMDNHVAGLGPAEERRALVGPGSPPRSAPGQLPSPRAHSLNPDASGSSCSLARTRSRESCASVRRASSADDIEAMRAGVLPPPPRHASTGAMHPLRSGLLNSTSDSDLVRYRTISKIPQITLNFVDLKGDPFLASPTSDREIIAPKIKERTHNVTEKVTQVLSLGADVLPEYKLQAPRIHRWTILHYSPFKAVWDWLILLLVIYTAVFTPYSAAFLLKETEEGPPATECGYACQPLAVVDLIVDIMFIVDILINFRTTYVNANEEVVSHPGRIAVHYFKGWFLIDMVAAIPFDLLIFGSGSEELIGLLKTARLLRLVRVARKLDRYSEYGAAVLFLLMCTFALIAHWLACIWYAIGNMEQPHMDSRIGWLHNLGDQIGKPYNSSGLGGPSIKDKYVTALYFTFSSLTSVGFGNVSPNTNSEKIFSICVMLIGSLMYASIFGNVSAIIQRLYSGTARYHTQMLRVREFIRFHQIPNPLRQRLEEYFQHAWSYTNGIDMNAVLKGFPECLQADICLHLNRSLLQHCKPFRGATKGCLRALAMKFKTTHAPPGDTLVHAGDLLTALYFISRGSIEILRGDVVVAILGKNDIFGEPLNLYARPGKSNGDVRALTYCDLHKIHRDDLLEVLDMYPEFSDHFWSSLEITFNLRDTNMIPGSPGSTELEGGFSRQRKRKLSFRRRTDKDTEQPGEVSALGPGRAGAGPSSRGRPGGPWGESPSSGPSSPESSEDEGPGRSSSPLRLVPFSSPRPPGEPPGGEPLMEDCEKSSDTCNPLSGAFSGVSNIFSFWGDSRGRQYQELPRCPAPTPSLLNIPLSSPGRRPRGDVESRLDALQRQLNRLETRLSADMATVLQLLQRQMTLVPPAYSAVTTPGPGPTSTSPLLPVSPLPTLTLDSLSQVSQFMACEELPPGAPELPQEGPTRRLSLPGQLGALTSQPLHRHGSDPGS

As to `Cc1nccn1CC(=O)N1CCC2(CC1)COC1c3cc(Cl)ccc3OC(C)(C)C1C2` (single isomer, unassigned) [Example 3], the IC50 with HT-29 cells is 80 nM. On hERG [1], this molecule showed an IC50 of 200 nM and a hERG/HT-29 of 2.50.
The matching figures for `Cc1nccn1CC(=O)N1CCC2(CC1)COC1c3ccc(Br)cc3OC(C)(C)C1C2` (stereo not shown) [Example 8]: 310 nM, 300 nM and 0.97.
The matching figures for `CC1(C)Oc2ccc(N=[N+]=[N-])cc2C2OCC3(CCN(C(=O)Cn4ccnc4C#N)CC3)CC21` (stereo not shown) [Example 11]: 4090 nM, 4900 nM and 1.20.
As to `CC1(C)Oc2ccc(Cl)cc2C2OCC3(CCN(C(=O)Cn4ccnc4C#N)CC3)CC21` (stereo not shown) [Example 12], the IC50 in the series on HT-29 cells was 550 nM. At hERG [1], this molecule returned an IC50 of 2900 nM and a hERG/HT-29 of 5.27.
Consider `Cc1c(CO)ncn1CC(=O)N1CCC2(CC1)COC1c3cc(Cl)ccc3OC(C)(C)C1C2` (stereo not shown) [Example 14], for which the IC50 in the series on HT-29 cells amounted to 400 nM. On hERG [1], the IC50 stood at 300 nM and the hERG/HT-29 turned out to be 0.75.
The matching figures for `CC1(C)Oc2ccc(Cl)cc2C2OCC3(CCN(C(=O)Cn4ccnc4CO)CC3)CC21` (stereo not shown) [Example 15]: 300 nM, 1600 nM and 5.33.
The matching figures for `CC1(C)Oc2ccc(Cl)cc2C2OCC3(CCN(C(=O)Cn4cnc(C(F)(F)F)c4)CC3)CC21` (stereo not shown) [Example 17]: 8300 nM, 3000 nM and 0.36.
Turning to `Cn1cncc1CN1CCC2(CC1)COC1c3cc(F)ccc3OC(C)(C)C1C2` (stereo not shown) [Example 31], in the series with HT-29 cells, the IC50 was 60 nM. In addition, at hERG [2], the hERG/HT-29 was 23.3 and the IC50 came out at 1.4 µM.
Take `Cn1cncc1CN1CCC2(CC1)COC1c3cccc(Cl)c3OC(C)(C)C1C2` (stereo not shown) [Example 34]: in the series on HT-29 cells, the IC50 is less than 10 nM and the “activity for inhibiting cell proliferation in the sphere culture condition” value is “potent activity”. Further, at hERG [2], the hERG/HT-29 is listed as greater than 140; the IC50 was 1.4 µM; the “deviation between the concentration of inhibiting 50% cell proliferation and the concentration of inhibiting 50% hERG current” value is listed as “good deviation”.
For `CC1(C)Oc2ccc(Cl)cc2C2OCC3(CCN(Cc4ncc[nH]4)CC3)CC21` (stereo not shown) [Example 35], the IC50 was found to be 210 nM in the series with HT-29 cells and 3.5 µM at hERG [2]. For the same molecule, the hERG/HT-29 at hERG [2] is recorded as 16.7.
With `CC1(C)Oc2ccc(F)cc2C2OCC3(CCN(CCn4ccnc4)CC3)CC21` (stereo not shown) [Example 39], in the series on HT-29 cells, the IC50 is less than 10 nM and the “activity for inhibiting cell proliferation in the sphere culture condition” value is recorded as “potent activity”. Also, at hERG [2], the hERG/HT-29 was greater than 100; the IC50 worked out at 1 µM; the “deviation between the concentration of inhibiting 50% cell proliferation and the concentration of inhibiting 50% hERG current” value was “good deviation”.
The matching figures for `CC1(C)Oc2ccc(Cl)cc2C2OCC3(CCN(CCn4ccnc4)CC3)CC21` (stereo not shown) [Example 40]: less than 10 nM, “potent activity”, greater than 140, 1.4 µM and “good deviation”.
The matching figures for `CC1(C)Oc2cc(Cl)ccc2C2OCC3(CCN(CCn4ccnc4)CC3)CC21` (stereo not shown) [Example 41]: less than 10 nM, “potent activity”, greater than 70, 0.7 µM and “good deviation”.
The matching figures for `CC1(C)Oc2cc(Cl)ccc2C2OCC3(CCN(CCn4ccnc4)CC3)CC21` (stereo not shown) [Example 42]: less than 10 nM, “potent activity”, greater than 140, 1.4 µM and “good deviation”.
For the molecule `Cc1nccn1CCN1CCC2(CC1)COC1c3cc(F)ccc3OC(C)(C)C1C2` (stereo not shown) [Example 43], in the series on HT-29 cells, the IC50 worked out at 50 nM. In addition, at hERG [1], the IC50 stood at 1000 nM and the hERG/HT-29 was found to be 20.
For the molecule `Cc1nccn1CCN1CCC2(CC1)COC1c3cc(F)ccc3OC(C)(C)C1C2` (stereo not shown) [Example 44], in the series with HT-29 cells, the IC50 is less than 10 nM and the “activity for inhibiting cell proliferation in the sphere culture condition” value was “potent activity”. Also, on hERG [2], the hERG/HT-29 is listed as greater than 360; the IC50 was 3.6 µM; the “deviation between the concentration of inhibiting 50% cell proliferation and the concentration of inhibiting 50% hERG current” value is listed as “good deviation”.
Consider `Cc1nccn1CCN1CCC2(CC1)COC1c3cc(F)ccc3OC(C)(C)C1C2` (stereo not shown) [Example 45], for which, in the series on HT-29 cells, the IC50 was less than 10 nM and the “activity for inhibiting cell proliferation in the sphere culture condition” value was “potent activity”. Besides, at hERG [1], the IC50 is 400 nM and the hERG/HT-29 was greater than 40.
`Cc1nccn1CCN1CCC2(CC1)COC1c3cc(Cl)ccc3OC(C)(C)C1C2` (stereo not shown) [Example 47]: in the series on HT-29 cells, the IC50 was less than 10 nM and the “activity for inhibiting cell proliferation in the sphere culture condition” value is on record as “potent activity”. Moreover, at hERG [2], the hERG/HT-29 is recorded as greater than 190; the IC50 worked out at 1.9 µM; the “deviation between the concentration of inhibiting 50% cell proliferation and the concentration of inhibiting 50% hERG current” value was “good deviation”.
The matching figures for `Cc1nccn1CCN1CCC2(CC1)COC1c3cc(Cl)ccc3OC(C)(C)C1C2` (stereo not shown) [Example 48]: less than 10 nM, “potent activity”, greater than 80, 0.8 µM and “good deviation”.
The matching figures for `Cc1nccn1CCN1CCC2(CC1)COC1c3ccc(Cl)cc3OC(C)(C)C1C2` (stereo not shown) [Example 49]: less than 10 nM, “potent activity”, greater than 140, 1.4 µM and “good deviation”.
`Cc1nccn1CCN1CCC2(CC1)COC1c3ccc(Cl)cc3OC(C)(C)C1C2` (stereo not shown) [Example 50]: the IC50 in the series with HT-29 cells came to 30 nM. Further, on hERG [1], the IC50 came out at 1500 nM and the hERG/HT-29 amounted to 50.
On to `Cc1nccn1CCN1CCC2(CC1)COC1c3ccc(Cl)cc3OC(C)(C)C1C2` (stereo not shown) [Example 51], for which, in the series with HT-29 cells, the IC50 was less than 10 nM and the “activity for inhibiting cell proliferation in the sphere culture condition” value was “potent activity”. In addition, at hERG [2], the hERG/HT-29 is on record as greater than 90; the IC50 is 0.9 µM; the “deviation between the concentration of inhibiting 50% cell proliferation and the concentration of inhibiting 50% hERG current” value was “good deviation”.
The matching figures for `CC1(C)Oc2cc(Cl)ccc2C2OCC3(CCN(CCn4ccnc4CO)CC3)CC21` (stereo not shown) [Example 54]: less than 10 nM, “potent activity”, greater than 140, 1.4 µM and “good deviation”.
As for `CC1(C)Oc2ccc(Cl)cc2C2OCC3(CCN(CCn4cnc(CO)c4)CC3)CC21` (stereo not shown) [Example 55], the IC50 in the series with HT-29 cells was determined as 60 nM. At hERG [1], this molecule gave an IC50 of 1600 nM and a hERG/HT-29 of 26.7.
With `Cc1c(CO)ncn1CCN1CCC2(CC1)COC1c3cc(Cl)ccc3OC(C)(C)C1C2` (stereo not shown) [Example 56], in the series on HT-29 cells, the IC50 was less than 10 nM and the “activity for inhibiting cell proliferation in the sphere culture condition” value is given as “potent activity”. For the same molecule, at hERG [2], the hERG/HT-29 is greater than 80; the IC50 was 0.8 µM; the “deviation between the concentration of inhibiting 50% cell proliferation and the concentration of inhibiting 50% hERG current” value was “good deviation”.
Turning to `Cc1nc(CO)cn1CCN1CCC2(CC1)COC1c3ccc(Cl)cc3OC(C)(C)C1C2` (stereo not shown) [Example 57], the values for the IC50 in the series with HT-29 cells and at hERG [1] were 70 nM and 1100 nM, respectively. Moreover, the hERG/HT-29 on hERG [1] turned out to be 15.7.
For `CC1(C)Oc2ccc(Cl)cc2C2OCC3(CCN(CCn4ccnc4C#N)CC3)CC21` (stereo not shown) [Example 58], in that order: 70 nM, 1900 nM and 27.1.
For `CC(=O)NCCc1nccn1CCN1CCC2(CC1)COC1c3cc(Cl)ccc3OC(C)(C)C1C2` (stereo not shown) [Example 60], in that order: 160 nM, 1100 nM and 6.88.
